Assay results taken from patent publication US6753345B2, “7-hexanolytaxol and methods for preparing the same” (Hauser, Inc., priority 1998, dated 2004).

Key:
SK-MEL-28 = experiment: SRB cytotoxicity screening assay (Melanoma)
SK-OV-3 = experiment: SRB cytotoxicity screening assay (Ovarian)
ACHN = experiment: SRB cytotoxicity screening assay (Renal Cancer)
SK-BR-3 = experiment: SRB cytotoxicity screening assay (Breast Cancer)
MDA-MB-468 = experiment: SRB cytotoxicity screening assay (Breast Cancer)
SNB-75 = experiment: SRB cytotoxicity screening assay (CNS Cancer)
SK-MEL-5 = experiment: SRB cytotoxicity screening assay (Melanoma)
CAKI-1 = experiment: SRB cytotoxicity screening assay (Renal Cancer)
NCI-H23 = experiment: SRB cytotoxicity screening assay (Non-Small Cell Lung Cancer)
MAXF 401 = experiment: SRB cytotoxicity screening assay (Breast Cancer); type: cell-based; conditions: MAXF 401 (Breast Cancer), 48 hour incubation
MDA-N = experiment: SRB cytotoxicity screening assay (Breast Cancer)
MDA-MB-435 = experiment: SRB cytotoxicity screening assay (Breast Cancer)
SF-295 = experiment: SRB cytotoxicity screening assay (CNS Cancer)
MDR+ cell line = experiment: Multidrug resistant cell line screening (MDR ratio); type: cell-based
Source text: The compound of the present invention was further tested on multidrug resistant cell lines. The resistance of cancer cells to multiple chemotherapeutic drugs which are structurally unrelated has been termed “multidrug resistance.” In the past several years, several mechanisms of multidrug resistance have been described, including the expression of a cell surface multidrug efflux pump (P-glycoprotein or the multidrug transporter), altered glutathione metabolism, reduced activity of topoisomerase II, and various less clearly defined changes in cellular proteins. Because of evidence that expression of P-glycoprotein is associated with drug-resistance in cancer, P-glycoprotein has been studied extensively from the point of view of its biochemistry and mechanism of action in order to develop inhibitors which can be used clinically to reverse drug resistance of cancers in patients. The clinical significance of the other mechanisms of multidrug resistance are less well-established, but many model systems indicate that they may contribute to clinical resistance.

[1] = tested on: cell line panel (60 lines, nine disease-related subpanels)
CCRF-CEM = conditions: human, 48 h

Structure (SMILES): CCCCCC(=O)O[C@H]1C[C@H]2OC[C@@]2(OC(C)=O)[C@H]2[C@H](OC(=O)c3ccccc3)[C@]3(O)C[C@H](OC(=O)[C@H](O)[C@@H](NC(=O)c4ccccc4)c4ccccc4)C(C)=C([C@@H](OC(C)=O)C(=O)[C@]12C)C3(C)C [7-hexanoyltaxol]
- GI50 (SK-MEL-28; Homo sapiens, SK-MEL-28, 48 h, read-out: Log10 GI50 (converted)): < 0.01 µM
- CC50 (SK-MEL-28; Homo sapiens, SK-MEL-28, 48 h, read-out: Log10 LC50 (converted)): > 100 µM
- Log10 TGI (SK-MEL-28; SK-MEL-28 (Melanoma), PG=0, 48 hour incubation): −4.33 molar
- GI50 (SK-OV-3; Homo sapiens, SK-OV-3, 48 h, read-out: Log10 GI50 (converted)): < 0.01 µM
- CC50 (SK-OV-3; Homo sapiens, SK-OV-3, 48 h, read-out: Log10 LC50 (converted)): 91.2 µM
- Log10 TGI (SK-OV-3; SK-OV-3 (Ovarian), PG=0, 48 hour incubation): −4.84 molar
- Log10 TGI (ACHN; ACHN (Renal Cancer), PG=0, 48 hour incubation): >−4.00 molar
- GI50 (ACHN; Homo sapiens, ACHN, 48 h, read-out: Log10 GI50 (converted)): 0.0955 µM
- CC50 (ACHN; Homo sapiens, ACHN, 48 h, read-out: Log10 LC50 (converted)): > 100 µM
- GI50 (SK-BR-3; Homo sapiens, SK-BR-3, 48 h, read-out: Log10 GI50 (converted)): < 0.01 µM
- CC50 (SK-BR-3; Homo sapiens, SK-BR-3, 48 h, read-out: Log10 LC50 (converted)): > 100 µM
- Log10 TGI (SK-BR-3; SK-BR-3 (Breast Cancer), PG=0, 48 hour incubation): −6.04 molar
- GI50 (MDA-MB-468; Homo sapiens, MDA-MB-468, 48 h, read-out: Log10 GI50 (converted)): < 0.01 µM
- CC50 (MDA-MB-468; Homo sapiens, MDA-MB-468, 48 h, read-out: Log10 LC50 (converted)): > 100 µM
- Log10 TGI (MDA-MB-468; MDA-MB-468 (Breast Cancer), PG=0, 48 hour incubation): −6.26 molar
- GI50 (SNB-75; Homo sapiens, SNB-75, 48 h, read-out: Log10 GI50 (converted)): < 0.01 µM
- CC50 (SNB-75; Homo sapiens, SNB-75, 48 h, read-out: Log10 LC50 (converted)): > 100 µM
- Log10 TGI (SNB-75; SNB-75 (CNS Cancer), PG=0, 48 hour incubation): −7.41 molar
- GI50 (SK-MEL-5; Homo sapiens, SK-MEL-5, 48 h, read-out: Log10 GI50 (converted)): < 0.01 µM
- CC50 (SK-MEL-5; Homo sapiens, SK-MEL-5, 48 h, read-out: Log10 LC50 (converted)): > 100 µM
- Log10 TGI (SK-MEL-5; SK-MEL-5 (Melanoma), PG=0, 48 hour incubation): −4.56 molar
- Log10 TGI (CAKI-1; CAKI-1 (Renal Cancer), PG=0, 48 hour incubation): −4.52 molar
- GI50 (CAKI-1; Homo sapiens, CAKI-1, 48 h, read-out: Log10 GI50 (converted)): 0.263 µM
- CC50 (CAKI-1; Homo sapiens, CAKI-1, 48 h, read-out: Log10 LC50 (converted)): > 100 µM
- GI50 (NCI-H23; Homo sapiens, NCI-H23, 48 h, read-out: Log10 GI50 (converted)): < 0.01 µM
- CC50 (NCI-H23; Homo sapiens, NCI-H23, 48 h, read-out: Log10 LC50 (converted)): 45.7 µM
- Log10 TGI (NCI-H23; NCI-H23 (Non-Small Cell Lung Cancer), PG=0, 48 hour incubation): −4.86 molar
- GI50 (MAXF 401; Homo sapiens, MAXF401, PG=+50, read-out: Log10 GI50 (converted)): < 0.01 µM
- Log10 TGI (MAXF 401; PG=0): <−8.00 molar
- GI50 (MDA-N; Homo sapiens, MDA-N, 48 h, read-out: Log10 GI50 (converted)): < 0.01 µM
- CC50 (MDA-N; Homo sapiens, MDA-N, 48 h, read-out: Log10 LC50 (converted)): < 0.01 µM
- Log10 TGI (MDA-N; MDA-N (Breast Cancer), PG=0, 48 hour incubation): <−8.00 molar
- GI50 (MDA-MB-435; Homo sapiens, MDA-MB-435, 48 h, read-out: Log10 GI50 (converted)): < 0.01 µM
- CC50 (MDA-MB-435; Homo sapiens, MDA-MB-435, 48 h, read-out: Log10 LC50 (converted)): < 0.01 µM
- Log10 TGI (MDA-MB-435; MDA-MB-435 (Breast Cancer), PG=0, 48 hour incubation): <−8.00 molar
- GI50 (SF-295; Homo sapiens, SF-295, 48 h, read-out: Log10 GI50 (converted)): < 0.01 µM
- CC50 (SF-295; Homo sapiens, SF-295, 48 h, read-out: Log10 LC50 (converted)): > 100 µM
- Log10 TGI (SF-295; SF-295 (CNS Cancer), PG=0, 48 hour incubation): −6.41 molar
- MDR (ratio of two IC50 values, numerator is an MDR+ cell line) (MDR+ cell line; higher numbers = less effective vs. MDR cells): 1
- effectiveness against multidrug resistant cell lines compared with paclitaxel (MDR+ cell line; multidrug resistant cell lines): vastly more effective than paclitaxel

Structure (SMILES): CC(=O)O[C@H]1C(=O)[C@@]2(C)[C@H]([C@H](OC(=O)c3ccccc3)[C@]3(O)C[C@H](OC(=O)[C@H](O)[C@@H](NC(=O)c4ccccc4)c4ccccc4)C(C)=C1C3(C)C)[C@]1(OC(C)=O)CO[C@@H]1C[C@@H]2O [Paclitaxel, paclitaxel, reference compound]
- Log10 LC50, Range [1]: 0.45
- Log10 LC50 (CCRF-CEM): >−4.00 molar
